The subject of one series is BT142 cells. Kind of series: Cytotoxicity assay, LDL-supplemented sphere culture, low-grade glioma line (ATP). It counts as cell-based. The note with it: 1 µM; 7 days; LDL 5 µg/mL; BT142 (IDH1 mutant-type, R132H/-). Here is the method:
U-87 cells (IDH1 wild-type) and BT142 cells derived from low-grade glioma (IDH1 mutant-type, R132H/-) were cultured for 7 days in LDL-supplemented sphere medium in the presence or absence of Compound 1 (1 µM). The LDL concentration was 5 µg/mL. After incubation, intracellular ATP levels were quantified as an indicator of cell viability, and cytotoxicity was compared between conditions.

The next series relates to B16 cells. Kind of series: Efficacy in anti-PD-1 antibody-resistant in vivo model. The arrangement: species or system C57BL/6J mice. Conditions: 10 mg/kg, once daily; B16 intradermal; versus nivolumab 5 mg/kg once weekly. As for the experimental part: B16 cells (5 x 10^5 cells; obtained from the JCRB Cell Bank) were intradermally implanted into C57BL/6J mice to establish tumors. On day 12 after implantation, administration of Compound 1 (10 mg/kg, once daily) or an anti-PD-1 antibody (nivolumab, 5 mg/kg, once weekly) was initiated, and the efficacy of each monotherapy group was compared with that of the control group.

For the compound `CC1(C)Oc2cc(Cl)ccc2[C@@H]2OCC3(CCN(CCn4ccnc4)CC3)C[C@H]21` [Compound 1, (4'aR,10'bR)-8'-chloro-1-[2-(1H-imidazol-1-yl)ethyl]-5',5'-dimethyl-4'a,10'b-dihydro-2'H,4'H,5'H-spiro[piperidine-4,3'-pyrano[3,2-c][1]benzopyran] diphosphate], in the series on BT142 cells, the cytotoxicity result is “marked cytotoxicity”. Further, the “tumor growth inhibition as monotherapy” value with B16 cells is “statistically significant inhibition of tumor growth compared with the nivolumab-treated group”.

(Values after patent EP4806435A1, “DIHYDROCHROMENE-DERIVATIVE-CONTAINING THERAPEUTIC AGENT FOR CANCER” (Sumitomo Pharma Co., Ltd., priority 2023, dated 2025).)
